Test results published in patent EP0256909B1, “N,N-bis-(4-fluorophenyl) carbamoyl acetohydroxamic acid and pharmaceutical composition containing it” (priority 1986, dated 1988).

Columns and labels:
[1] = in vivo; details: mouse, in vivo; for LD50 at 24 h: dose létale 50% (DL50), 24 h after administration
Protocol: Le CRL 41131, en suspension dans une solution de gomme arabique à 5%, a été administré par voie intrapéritonéale sous un volume de 20 ml/kg chez la souris (mâle, NMRI, Evic Ceba) et de 5 ml/kg chez le rat (mâle, CD1, Sprague Dawley, Charles River).
Aussitôt après l'administration de CRL 41131, les souris groupées par lots de 10 sont placées dans des boîtes en Plexiglass (20 x 10 x 10 cm).
On note le nombre d'animaux morts, toutes les heures pendant 4 h et après 24, 48 et 72 h.
La toxicité du CRL 41131 est déterminée dans les mêmes conditions sur des lots de souris placées à raison d'une par boîte.

[2] = system: souris; experiment: Electroshock test; type: in vivo; details: comparison section, no dose given
[3] = system: souris; experiment: Interaction with barbital; type: in vivo; details: comparison section
Protocol: Trente minutes après l'administration de CRL 41131, des lots de 10 souris reçoivent une injection intrapéritonéale de barbital (220 mg/kg).

[4] = results given in the earlier document; cited from earlier work
[5] = system: souris; experiment: Intergroup aggressiveness; type: in vivo; details: 32 et 256 mg/kg, comparison section
Protocol: Après avoir séjourné pendant 3 semaines dans chacune des moitiés d'une cage séparées par une cloison opaque, des groupes de 3 souris reçoivent le CRL 41131. Trente minutes plus tard, les deux groupes d'une même cage sont réunis par retrait de la cloison et on note le nombre de combats qui surviennent en 10 min.

[6] = system: rat; experiment: Interaction with amphetamine; type: in vivo; details: comparison section, no dose given
[7] = system: souris; experiment: Interaction with oxotremorine; type: in vivo; details: mouse, oxotremorine 0,5 mg/kg i.p.
Protocol: Le CRL 41131 est administré à des lots de 6 souris 30 min avant l'injection intrapéritonéale de 0,5 mg/kg d'oxotrémorine.

[8] = system: souris; experiment: Interaction with reserpine; type: in vivo; details: 64 mg/kg, comparison section
Protocol: Quatre heures après l'injection intrapéritonéale de 2,5 mg/kg de réserpine, des lots de 6 souris reçoivent le CRL 41131.

O=C(CC(=O)N(c1ccccc1)c1ccccc1)NO [CRL 40385, reference compound]
LD50 at 24 h ([1]; ip, grouped mice): ~1050 mg/kg | LD50 at 24 h ([1]; ip, isolated mice): ~1500 mg/kg | test à l'électrochoc [2]: s'oppose aux convulsions | sommeil (association au barbital) ([3]; 512 mg/kg): il ne le fait plus | sommeil (association au barbital) ([3]; doses below 512 mg/kg): diminue d'abord le sommeil | effet mis en évidence par un ensemble de tests [4]: effet anti-fatigue | agressivité intergroupe des souris [5]: augmentation | test à l'amphétamine: stéréotypies du rat [6]: prolonge les stéréotypies du rat | action hypothermisante de l'oxotrémorine (température) [7]: antagonise l'hyperthermie | intensité des tremblements provoqués par l'oxotrémorine [7]: diminue l'intensité des tremblements | test à la réserpine: hypothermie [8]: s'oppose modérément

CC(Cc1ccccc1)N(C)Cc1ccccc1 (stereo not shown) [benzophétamine, reference compound]
selectivity ratio ([1]; ip, rapport, LD50 ratio isolated/grouped mice (formula not readable), same conditions, 24 h): ~4

CCN(CC)C(C)C(=O)c1ccccc1 (stereo not shown) [diéthylpropion, reference compound]
selectivity ratio at 24 h [1]: ~8
